Assay results as given in PubChem BioAssay (NCI).
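GI50 marks 50% less growth. TGI denotes the concentration required for complete inhibition of growth.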

Tests used:
Experiment in all cases: NCI-60 cell line screen, 384-well format
NCI-H322M lung = system: NCI-H322M lung
NCI-H460 NSCLC = system: NCI-H460 NSCLC
NCI-H522 lung = system: NCI-H522 lung
NCI/ADR-RES ovarian = system: NCI/ADR-RES ovarian
OVCAR-3 ovarian = system: OVCAR-3 ovarian
OVCAR-4 ovarian = system: OVCAR-4 ovarian
OVCAR-5 ovarian = system: OVCAR-5 ovarian
OVCAR-8 ovarian = system: OVCAR-8 ovarian
PC-3 prostate = system: PC-3 prostate
RPMI-8226 leukemia = system: RPMI-8226 leukemia
RXF 393 renal = system: RXF 393 renal
SF-268 CNS = system: SF-268 CNS
SF-295 CNS = system: SF-295 CNS
SF-539 CNS = system: SF-539 CNS
SK-MEL-2 melanoma = system: SK-MEL-2 melanoma
SK-MEL-28 melanoma = system: SK-MEL-28 melanoma
SK-MEL-5 melanoma = system: SK-MEL-5 melanoma
SK-OV-3 ovarian = system: SK-OV-3 ovarian
SN12C renal = system: SN12C renal
SNB-19 CNS = system: SNB-19 CNS
SNB-75 CNS = system: SNB-75 CNS
SR leukemia = system: SR leukemia
SW-620 colon = system: SW-620 colon
T-47D breast = system: T-47D breast
TK-10 renal = system: TK-10 renal
U251 glioblastoma = system: U251 glioblastoma
UACC-257 melanoma = system: UACC-257 melanoma
UACC-62 melanoma = system: UACC-62 melanoma

Q: Which results are given for `CN(C)CCNC(=O)c1cccc2cc3ccccc3nc12`?
A: GI50 (NCI-H322M lung): 1.74 µM; TGI (NCI-H322M lung): 3.53 µM; GI50 (NCI-H460 NSCLC): 0.375 µM; TGI (NCI-H460 NSCLC): 1.25 µM; GI50 (NCI-H522 lung): 1.24 µM; TGI (NCI-H522 lung): 2.51 µM; GI50 (NCI/ADR-RES ovarian): 0.876 µM; TGI (NCI/ADR-RES ovarian): 2.27 µM; GI50 (OVCAR-3 ovarian): 1.34 µM; TGI (OVCAR-3 ovarian): 2.81 µM; GI50 (OVCAR-4 ovarian): 1.79 µM; TGI (OVCAR-4 ovarian): 3.61 µM; GI50 (OVCAR-5 ovarian): 1.44 µM; TGI (OVCAR-5 ovarian): 3.69 µM; GI50 (OVCAR-8 ovarian): 0.611 µM; TGI (OVCAR-8 ovarian): 1.84 µM; GI50 (PC-3 prostate): 1.46 µM; TGI (PC-3 prostate): 3.29 µM; GI50 (RPMI-8226 leukemia): 0.506 µM; TGI (RPMI-8226 leukemia): 1.49 µM; GI50 (RXF 393 renal): 1.12 µM; TGI (RXF 393 renal): 2.36 µM; GI50 (SF-268 CNS): 1.15 µM; TGI (SF-268 CNS): 2.47 µM; GI50 (SF-295 CNS): 0.974 µM; TGI (SF-295 CNS): 2.38 µM; GI50 (SF-539 CNS): 0.449 µM; TGI (SF-539 CNS): 1.51 µM; GI50 (SK-MEL-2 melanoma): 3.28 µM; TGI (SK-MEL-2 melanoma): 4.78 µM; GI50 (SK-MEL-28 melanoma): 1.62 µM; TGI (SK-MEL-28 melanoma): 3.01 µM; GI50 (SK-MEL-5 melanoma): 1.18 µM; TGI (SK-MEL-5 melanoma): 2.42 µM; GI50 (SK-OV-3 ovarian): 1.2 µM; TGI (SK-OV-3 ovarian): 3.29 µM; GI50 (SN12C renal): 1.26 µM; TGI (SN12C renal): 2.74 µM; GI50 (SNB-19 CNS): 0.784 µM; TGI (SNB-19 CNS): 2.69 µM; GI50 (SNB-75 CNS): 0.806 µM; TGI (SNB-75 CNS): 2.13 µM; GI50 (SR leukemia): 0.198 µM; TGI (SR leukemia): 0.349 µM; GI50 (SW-620 colon): 0.718 µM; TGI (SW-620 colon): 1.99 µM; GI50 (T-47D breast): 2.05 µM; TGI (T-47D breast): 4.09 µM; GI50 (TK-10 renal): 1.25 µM; TGI (TK-10 renal): 2.95 µM; GI50 (U251 glioblastoma): 0.741 µM; TGI (U251 glioblastoma): 2.68 µM; GI50 (UACC-257 melanoma): 1.65 µM; TGI (UACC-257 melanoma): 3.05 µM; GI50 (UACC-62 melanoma): 1 µM; TGI (UACC-62 melanoma): 2.2 µM
